The numbers were not newly measured in patent US20250221954A1, “METHODS TO TREAT, PREVENT, OR REDUCE HYPERAMMONEMIA” (priority 2024, published 2025), which cites them from elsewhere.

Structures are written as SMILES.

For series [1] the following is noted: decrease in clearance with increased dose.
The conditions of series [2]: prolonged, multiday maintenance of phenylacetate infusions.

For the compound `O=C([O-])Cc1ccccc1.[Na+]` [phenylacetate, sodium phenylacetate], in series [1], the elimination entry is on record as “saturable, non-linear elimination”. For the same compound, in series [2], the potential neurotoxicity result is “somnolence, fatigue, and lightheadedness”.

For the compound `O=C([O-])c1ccccc1.[Na+]` [benzoate, sodium benzoate], the elimination entry in series [1] is “saturable, non-linear elimination”.
